Experimental data taken from patent publication US11701345B2, “Car activator agents for cyclophosphamide-based treatments of cancer” (UNIVERSITY OF MARYLAND, BALTIMORE, priority 2017, dated 2023).
“Also recorded” adds a separate entry of the source.

Columns and labels:
SU-DHL-4 cells = assay: Hepatocyte/lymphoma co-culture with CHOP: cancer cell death, viability, caspase-3; format: cell-based, human; settings: hepatocyte/lymphoma co-culture, added to CHOP, FIGS. 10B-C
Method: HPH were cultured in collagen-coated 12-well plates and pretreated with vehicle control (0.1% DMSO) or hCAR activator (1 mmol/L) for 24 hours. The wells were then separated with […] polycarbonate membrane inserts (Sigma-Aldrich). A total of 0.5×10^6 SU-DHL-4 cells suspended in supplemented Williams' Medium E were transferred into the insert chamber with a final volume of 2 mL/well. In separate coculture experiments, HPH were replaced with either WT or CAR-KO HepaRG cells. The cocultures were exposed to designated concentrations of the chemotherapy drugs in CHOP in the presence or absence of hCAR activator for various time intervals, as indicated.
(§1) Homogenate proteins from treated HPH, H9c2 or HepaRG cells were resolved on NuPAGE Novex Bis-Tris 4% to 12% gels (Life Technologies) and electrophoretically transferred onto immobilon-P polyvinylidene difluoride membranes. Membranes were incubated with specific antibodies against human CAR (Perseus Proteomics), cleaved caspase-3 (Cell Signaling Technology), or g-H2AX (Millipore), diluted 1:1,000, 1:1,000, and 1:400, respectively. b-Actin was used to normalize protein loading. Following incubation with horseradish peroxidase goat antimouse or anti-rabbit IgG antibody, membranes were developed using SuperSignal West Pico Chemiluminescent Substrate (Thermo Scientific). Western blot signals were quantified by densitometry using ImageJ software from the National Institutes of Health.
HPHs and H9c2 rat cardiomyocytes were seeded at 7.5×10^4 cells per well in 96-well plates. HPH were cultured for 24 hours before treatment with hCAR activator (1 mmol/L) or vehicle control (0.1% DMSO), followed by treatment with the chemotherapy drugs included in CHOP at a range of concentrations. Culture medium containing CHOP drugs and metabolites was exchanged between the cell types at pre-determined time points. A typical 3-[4,5-dimethylthiazol-2-yl]-2,5 diphenyl tetrazolium bromide (MTT) assay was carried out as described previously (21). Cell viability was expressed as the percentage of vehicle control (0.1% DMSO). Cocultured cells were assembled and treated as described above. The viability of the SU-DHL-4 cells was determined at selected time points with a Cellometer Auto T4 (Nexcelom Biosciences) using trypan blue exclusion.

CYP2B6 = assay: Induction of CYP2B6 vs CYP3A4 mRNA (RT-PCR) and protein (Western blot) in human primary hepatocytes; format: cell-based; settings: for hCAR activation with preferred expression of CYP2B6 protein: FIGS. 3B-3D
Method: HPHs were obtained from Bioreclamation, IVT. Hepatocytes with viability over 90% were seeded at 1.5×10^6 or 7.5×10^5 cells per well in 6- or 12-well collagen-coated plates. After 4 hours of attachment, cells were overlaid with Matrigel (0.25 mg/mL) in serum-free Williams E medium to form the sandwich culture. Following incubation for 36 hours, HPH were treated with DMSO (0.1%) or hCAR activator (i.e. CITCO or DL 5016) (1 mmol/L) for 24 or 72 hours for mRNA and protein detection, respectively. In separate experiments, wild-type (WT) and CAR-knockout (KO) HepaRG cells obtained from Sigma-Aldrich were cultured in 6- or 12-well collagen-coated plates. Cells were further treated with DMSO or hCAR activator.
Total RNA from HPH and lymphoma cells was isolated with TRizol Reagent (Life Technologies) and reverse transcribed using a High Capacity cDNA Archive kit (Applied Biosystems) following the manufacturers' instructions. mRNA expression of CYP2B6, CYP3A4, was normalized against that of GAPDH. Real-time PCR assays were performed in 96-well optical plates on a StepOnePlus Real-Time PCR System with SYBR Green PCR Master Mix (Applied Biosystems). The primer sequences used for real-time PCR analyses included: CYP2B6: 50-[…]-30 and 50-CCTTCACCAAGACAAATC-CGC-30; CYP3A4: 50-[…]-30 and 50[…]-30. Fold induction of genes over control was determined as 2DDCt, where DCt is representative of the cycle threshold number difference between the target gene and GAPDH and DDCt represents the relative change in the intergroup variations.
as §1
The human primary hepatocytes from human donor were treated with vehicle control (0.1% DMSO) or DL5016 at a concentration ranging from 0.1 μM to 1 μM for 24 h and 72 h. The expression mRNA for CYP2B6 and CYP3A4 and CYP2B6 and CYP3A4 protein were analyzed at the time point of 24 h and 72 h respectively.

hCAR = target: T1, hCAR (Homo sapiens, UniProt Q14994, INS274A); assay: hCAR-mediated CYP2B6 luciferase reporter gene activation in transfected HepG2 cells; format: cell-based; settings: for activation of hCAR: concentrations under 1 μm, FIGS. 3E-3J
T1 construct: expressed in transfected cells; host or cells: HepG2
T1 sequence (Q14994 with tags, fused parts or gaps isoform Q14994-2 INS270A): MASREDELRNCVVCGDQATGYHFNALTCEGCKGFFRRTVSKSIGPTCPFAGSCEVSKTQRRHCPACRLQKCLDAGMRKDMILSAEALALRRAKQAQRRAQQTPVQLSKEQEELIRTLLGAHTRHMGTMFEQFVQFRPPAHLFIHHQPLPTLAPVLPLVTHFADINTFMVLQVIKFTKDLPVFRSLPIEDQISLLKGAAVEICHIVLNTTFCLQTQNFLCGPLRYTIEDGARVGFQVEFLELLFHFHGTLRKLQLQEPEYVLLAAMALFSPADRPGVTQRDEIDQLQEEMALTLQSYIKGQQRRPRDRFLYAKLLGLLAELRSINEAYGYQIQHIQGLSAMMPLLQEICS
T1 sequence (P19793 1-462 partner): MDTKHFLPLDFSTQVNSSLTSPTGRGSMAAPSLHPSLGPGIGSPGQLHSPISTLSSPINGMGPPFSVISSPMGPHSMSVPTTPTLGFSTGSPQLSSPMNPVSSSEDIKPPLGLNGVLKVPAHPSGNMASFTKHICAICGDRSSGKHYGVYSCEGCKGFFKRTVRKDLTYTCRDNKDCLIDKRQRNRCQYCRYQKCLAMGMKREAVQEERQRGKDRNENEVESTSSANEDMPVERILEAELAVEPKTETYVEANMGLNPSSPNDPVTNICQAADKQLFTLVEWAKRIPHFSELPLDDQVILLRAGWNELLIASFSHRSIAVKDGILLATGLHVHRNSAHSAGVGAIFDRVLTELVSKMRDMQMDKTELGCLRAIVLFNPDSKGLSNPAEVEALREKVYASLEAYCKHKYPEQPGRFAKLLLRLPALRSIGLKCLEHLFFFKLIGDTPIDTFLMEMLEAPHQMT
Method: (§2) Using CITCO as a model compound, the biological activity of CITCO has been evaluated for its selective activation of hCAR vs. hPXR in luciferase reporter assays, and its effects on CYP2B6 expression at both mRNA and protein levels in cultured human primary hepatocytes (See FIGS. 5A-B).
HepG2 cells were transfected with hCAR1+A expression plasmid and CYP2B6-2.2k firely luciferase reporter construct. Transfected cells were treated with vehicle control (0.1% DMSO), CITCO and DL5016 at indicated concentrations for 24 h, CYP2B6 reported activities were normalized as folds over vehicle control and are expressed as means±SD (n=3). * p<0.05; ***, p<0.001. The results for the effects of DL 5016 compared with CITCO on hCAR-mediated CYP2B6 reported gene activation are shown in FIG. 2.

Aqueous solubility = format: physicochemical
hPXR = target: T2, hPXR (Homo sapiens, UniProt O75469); assay: hPXR luciferase reporter assay; format: cell-based; settings: concentrations under 1 μm; FIGS. 3E-3J
T2 sequence (O75469 1-434): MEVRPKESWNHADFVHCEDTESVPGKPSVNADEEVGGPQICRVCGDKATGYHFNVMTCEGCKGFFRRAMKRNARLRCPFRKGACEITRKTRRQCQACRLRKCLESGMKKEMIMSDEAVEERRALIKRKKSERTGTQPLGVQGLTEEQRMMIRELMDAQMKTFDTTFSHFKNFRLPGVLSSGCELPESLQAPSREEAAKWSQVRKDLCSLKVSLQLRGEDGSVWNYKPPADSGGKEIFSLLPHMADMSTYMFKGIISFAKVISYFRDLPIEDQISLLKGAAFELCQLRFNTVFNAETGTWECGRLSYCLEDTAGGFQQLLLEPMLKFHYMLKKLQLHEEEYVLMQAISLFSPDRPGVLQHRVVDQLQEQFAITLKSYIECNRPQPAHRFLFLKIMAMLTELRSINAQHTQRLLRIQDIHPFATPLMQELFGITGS
Text: as §2

| SMILES | hCAR activation with preferred expression of CYP2B6 protein (CYP2B6) | other results |
| --- | --- | --- |
| c1ccc2c(c1)CC(NCc1c(-c3ccc4ccccc4c3)nc3occn13)C2 [DL5016, N-((6-(naphthalen-2-yl)imidazo[2,1-b]oxazol-5-yl)methyl)-2,3-dihydro-1H-inden-2-amine] |  | effect on CHOP anticancer activity (cancer cell death) (SU-DHL-4 cells): potentiates the beneficial effects of CHOP in causing cancer cell death; also recorded: clearly enhanced the regimen's anticancer activity; effect on CHOP anticancer activity (cancer cell death) (SU-DHL-4 cells; listed as DL 5016): potentiate the beneficial effects of CHOP in causing cancer cell death; induction of CYP2B6 over CYP3A4 at mRNA and protein levels (CYP2B6; human primary hepatocytes, 0.1-1 μM, 24 h (mRNA) and 72 h (protein), FIG. 3A): potent and selective induction of CYP2B6 over CYP3A4; hCAR activity (CYP2B6 reporter gene activation) compared with CITCO (hCAR; HepG2 cells, hCAR1+A plasmid, CYP2B6-2.2k luciferase reporter, 24 h, FIG. 2): higher hCAR-inducing activity than CITCO; also recorded: more effective than CITCO; aqueous solubility compared with CITCO (Aqueous solubility): improved aqueous solubility |
| Clc1ccc(-c2nc3sccn3c2CNCCc2cccc(Cl)c2)cc1 [DL4094, 2-(3-chlorophenyl)-N-((6-(4-chlorophenyl)imidazo[2,1-b]thiazol-5-yl)methyl)ethan-1-amine] | activate hCAR resulted preferred expression of CYP2B6 protein |  |
| Cl.Clc1ccc(-c2nc3sccn3c2CNCCc2ccc(Cl)c(Cl)c2)cc1 [DL4072, N-((6-(4-chlorophenyl)imidazo[2,1-b]thiazol-5-yl)methyl)-2-(3,4-dichlorophenyl)ethan-l-amine hydrochloride] | activate hCAR resulted preferred expression of CYP2B6 protein | activation of hPXR (hPXR): not hPXR; activation of hCAR (hCAR): activated hCAR |
| Clc1ccc(-c2nc3sccn3c2/C=N/CCc2ccc(Cl)c(Cl)c2)cc1 [DL4059, (E)-1-(6-(4-chlorophenyl)imidazo[2,1-b]thiazol-5-yl)-N-(3,4-dichlorophenethyl)methanimine] | activate hCAR resulted preferred expression of CYP2B6 protein | activation of hPXR (hPXR): low activity; activation of hCAR (hCAR): low activity |
| Clc1ccc(-c2nc3sccn3c2CNCCc2cccc(Br)c2)cc1 [DL4104, 2-(3-bromophenyl)-N-((6-(4-chlorophenyl)imidazo[2,1-b]thiazol-5-yl)methyl)ethan-1-amine] | activate hCAR resulted preferred expression of CYP2B6 protein |  |
| Clc1ccc(CCNCc2c(-c3ccc(Cl)cc3)nc3sccn23)cc1 [DL4095, 2-(4-chlorophenyl)-N-((6-(4-chlorophenyl)imidazo[2,1-b]thiazol-5-yl)methyl)ethan-1-amine] | activate hCAR resulted preferred expression of CYP2B6 protein |  |
| Clc1ccc(-c2nc3sccn3c2CNCCc2ccc(Cl)c(Cl)c2)cc1 [DL4097, N-((6-(4-chlorophenyl)imidazo[2,1-b]thiazol-5-yl)methyl)-2-(3,4-dichlorophenyl)ethan-1-amine] | activate hCAR resulted preferred expression of CYP2B6 protein |  |
| Clc1ccc(-c2nc3sccn3c2CNCCc2ccc(Br)cc2)cc1 [DL 4100, 2-(4-bromophenyl)-N-((6-(4-chlorophenyl)imidazo[2,1-b]thiazol-5-yl)methyl)ethan-1-amine] | activate hCAR resulted preferred expression of CYP2B6 protein |  |
| Clc1ccc(-c2nc3sccn3c2CNCCc2ccc(Cl)c(Br)c2)cc1 [DL 4102, 2-(3-bromo-4-chlorophenyl)-N-((6-(4-chlorophenyl)imidazo[2,1-b]thiazol-5-yl)methyl)ethan-1-amine] | activate hCAR resulted preferred expression of CYP2B6 protein |  |
| FC(F)(F)c1ccc(CCNCc2c(-c3ccc(Cl)cc3)nc3sccn23)cc1Cl [DL4103, 2-(3-chloro-4-(trifluoromethyl)phenyl)-N-((6-(4-chlorophenyl)imidazo[2,1-b]thiazol-5-yl)methyl)ethan-1-amine] | activate hCAR resulted preferred expression of CYP2B6 protein |  |
